# Laboratory results taken from ChEMBL document CHEMBL4000165, “Chemosensitizing effect of Paris Saponin I on Camptothecin and 10-hydroxycamptothecin in lung cancer cells via p38 MAPK, ERK, and Akt signaling pathways” (Eur J Med Chem, 2017).
# Active and inactive are the calls of the source. The calls are words filed in the database; no cut-off is given here.
# Tests used:
# [1] = molecular target: Mitogen-activated protein kinase; ERK1/ERK2 (Homo sapiens) (UniProt P27361+P28482); test: Decrease in ERK1/2 phosphorylation in human NCI-H460 cells at 0.6 uM in presence of HCPT by Western blot method; type: cell-based
# Sequence of Mitogen-activated protein kinase; ERK1/ERK2 (Homo sapiens) (P27361 whole entry, looked up): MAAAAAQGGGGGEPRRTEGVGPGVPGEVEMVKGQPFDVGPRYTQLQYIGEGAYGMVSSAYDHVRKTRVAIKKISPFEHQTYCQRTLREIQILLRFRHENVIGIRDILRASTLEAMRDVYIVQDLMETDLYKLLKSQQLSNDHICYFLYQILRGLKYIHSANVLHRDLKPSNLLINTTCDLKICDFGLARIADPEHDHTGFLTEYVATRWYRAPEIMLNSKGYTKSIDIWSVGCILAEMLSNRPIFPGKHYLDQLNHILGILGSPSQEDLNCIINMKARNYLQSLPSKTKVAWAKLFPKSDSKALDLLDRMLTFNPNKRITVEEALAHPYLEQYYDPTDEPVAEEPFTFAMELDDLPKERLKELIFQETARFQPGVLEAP
# Sequence of Mitogen-activated protein kinase; ERK1/ERK2 (Homo sapiens) (P28482 whole entry, looked up): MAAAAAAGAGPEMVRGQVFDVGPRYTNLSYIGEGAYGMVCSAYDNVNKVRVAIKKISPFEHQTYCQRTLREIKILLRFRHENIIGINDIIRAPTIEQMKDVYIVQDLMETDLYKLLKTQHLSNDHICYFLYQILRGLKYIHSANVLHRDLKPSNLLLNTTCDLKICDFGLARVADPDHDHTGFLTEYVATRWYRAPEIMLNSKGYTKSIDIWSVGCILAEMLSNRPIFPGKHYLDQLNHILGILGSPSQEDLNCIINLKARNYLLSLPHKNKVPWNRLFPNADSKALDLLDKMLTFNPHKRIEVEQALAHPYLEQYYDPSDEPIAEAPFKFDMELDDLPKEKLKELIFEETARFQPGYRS
# NCI-H460 [2] = test: Cytotoxicity against human NCI-H460 cells assessed as reduction in cell viability at 0.3 to 0.6 uM after 48 hrs in presence of HCPT by MTT assay; type: functional, cell-based
# NCI-H446 [3] = test: Induction of apoptosis in human NCI-H446 cells assessed as increase in cytochrome-C expression at 0.6 uM in presence of CPT by Western blot method; type: functional, cell-based
# NCI-H446 [4] = test: Induction of apoptosis in human NCI-H446 cells at 0.6 uM up to 20 mins in presence of HCPT by acridine orange/ ethidium bromide staining based fluorescence microscopic method relative to control; type: functional
# NCI-H446 [5] = test: Induction of apoptosis in human NCI-H446 cells assessed as downregulation of Bcl-XL expression at 0.6 uM in presence of CPT by Western blot method; type: functional, cell-based
# NCI-H1299 [6] = test: Induction of apoptosis in human NCI-H1299 cells assessed as activation of caspase-3/7 at 0.3 uM after 48 hrs in presence of CPT by luciferase reporter gene assay; type: functional, cell-based
# NCI-H1299 [7] = test: Effect on ERK1/2 protein expression in human NCI-H1299 cells at 0.3 uM in presence of CPT by Western blot method; type: functional, cell-based
# NCI-H446 [8] = test: Effect on Akt protein expression in human NCI-H446 cells at 0.6 uM in presence of HCPT by Western blot method; type: functional, cell-based
# [9] = molecular target: T1, c-Jun N-terminal kinase, JNK (Homo sapiens) (UniProt P45983+P53779+P45984); test: Increase in JNK phosphorylation in human NCI-H460 cells at 0.6 uM in presence of CPT by Western blot method; type: cell-based
# NCI-H460 [10] = test: Induction of apoptosis in human NCI-H460 cells at 0.6 uM up to 20 mins in presence of CPT by acridine orange/ ethidium bromide staining based fluorescence microscopic method relative to control; type: functional
# NCI-H460 [11] = test: Cytotoxicity against human NCI-H460 cells assessed as reduction in cell viability by measuring combinantion index at 0.3 to 0.6 uM after 48 hrs in presence of CPT by MTT assay; type: functional
# NCI-H446 [12] = test: Induction of apoptosis in human NCI-H446 cells at 0.6 uM in presence of HCPT by Annexin-V FITC/propidium iodide staining based flow cytometry; type: functional, cell-based; conditions: TDE = time-dependent effect
# [13] = molecular target: T1, c-Jun N-terminal kinase, JNK (Homo sapiens); test: Increase in JNK phosphorylation in human NCI-H460 cells at 0.6 uM in presence of HCPT by Western blot method; type: cell-based
# NCI-H520 [14] = test: Cytotoxicity against human NCI-H520 cells assessed as reduction in cell viability at 0.3 to 0.6 uM after 48 hrs in presence of HCPT by MTT assay; type: functional, cell-based
# NCI-H460 [15] = test: Induction of apoptosis in human NCI-H460 cells at 0.6 uM in presence of HCPT by Annexin-V FITC/propidium iodide staining based flow cytometry; type: functional, cell-based; conditions: TDE = time-dependent effect
# NCI-H446 [16] = test: Induction of apoptosis in human NCI-H446 cells at 0.6 uM after 24 to 48 hrs by Annexin-V FITC/propidium iodide staining based flow cytometry; type: functional, cell-based
# NCI-H1299 [17] = test: Induction of apoptosis in human NCI-H1299 cells assessed as increase in pro-apoptotic cells at 0.3 uM after 48 hrs in presence of HCPT by Annexin-V FITC/propidium iodide staining based flow cytometry; type: functional, cell-based
# NCI-H520 [18] = test: Cytotoxicity against human NCI-H520 cells assessed as reduction in cell viability at 0.3 to 0.6 uM after 48 hrs in presence of CPT by MTT assay; type: functional, cell-based
# NCI-H1299 [19] = test: Decrease in p38 MAPK protein expression in human NCI-H1299 cells at 0.3 uM in presence of CPT by Western blot method; type: functional, cell-based
# NCI-H446 [20] = test: Effect on p38 MAPK protein expression in human NCI-H446 cells at 0.6 uM in presence of CPT by Western blot method; type: functional, cell-based
# NCI-H1299 [21] = test: Induction of apoptosis in human NCI-H1299 cells assessed as increase in total apoptotic cells at 0.3 uM after 48 hrs in presence of CPT by Annexin-V FITC/propidium iodide staining based flow cytometry; type: functional, cell-based
# NCI-H1299 [22] = test: Induction of apoptosis in human NCI-H1299 cells assessed as increase in caspase-9 expression at 0.3 uM in presence of HCPT by Western blot method; type: functional, cell-based
# NCI-H446 [23] = test: Induction of apoptosis in human NCI-H446 cells assessed as increase in Bax expression at 0.6 uM in presence of CPT by Western blot method; type: functional, cell-based
# NCI-H1299 [24] = test: Cytotoxicity against human NCI-H1299 cells assessed as reduction in cell viability at 0.3 to 0.6 uM after 48 hrs in presence of HCPT by MTT assay; type: functional, cell-based
# NCI-H446 [25] = test: Cytotoxicity against human NCI-H446 cells assessed as reduction in cell viability at 0.3 to 0.6 uM after 48 hrs in presence of HCPT by MTT assay; type: functional, cell-based
# NCI-H446 [26] = test: Induction of apoptosis in human NCI-H446 cells assessed as increase in caspase-9 expression at 0.6 uM in presence of CPT by Western blot method; type: functional, cell-based
# Homo sapiens [27] = species: Homo sapiens; test: Decrease in Akt phosphorylation in human NCI-H460 cells at 0.6 uM in presence of HCPT by Western blot method; type: cell-based
# NCI-H1299 [28] = test: Effect on ERK1/2 protein expression in human NCI-H1299 cells at 0.3 uM in presence of HCPT by Western blot method; type: functional, cell-based
# Homo sapiens [29] = species: Homo sapiens; test: Effect on Akt phosphorylation in human NCI-H446 cells at 0.6 uM in presence of HCPT by Western blot method; type: cell-based
# NCI-H446 [30] = test: Induction of apoptosis in human NCI-H446 cells assessed as downregulation of Bcl2 expression at 0.6 uM in presence of CPT by Western blot method; type: functional, cell-based
# [31] = molecular target: T2, MAP kinase p38 (Homo sapiens) (UniProt O15264+Q15759+Q16539+P53778); test: Effect on p38 MAPK phosphorylation in human NCI-H446 cells at 0.6 uM in presence of HCPT by Western blot method; type: cell-based
# NCI-H460 [32] = test: Induction of apoptosis in human NCI-H460 cells assessed as increase in caspase-9 expression at 0.6 uM in presence of HCPT by Western blot method; type: functional, cell-based
# [33] = molecular target: T2, MAP kinase p38 (Homo sapiens); test: Increase in p38 MAPK phosphorylation in human NCI-H1299 cells at 0.3 uM in presence of HCPT by Western blot method; type: cell-based
# [34] = molecular target: T2, MAP kinase p38 (Homo sapiens); test: Increase in p38 MAPK phosphorylation in human NCI-H460 cells at 0.6 uM in presence of HCPT by Western blot method; type: cell-based
# NCI-H1299 [35] = test: Induction of apoptosis in human NCI-H1299 cells at 0.3 uM up to 20 mins in presence of HCPT by acridine orange/ ethidium bromide staining based fluorescence microscopic method relative to control; type: functional
compound,measurement,setting,value
C[C@@H]1CC[C@@]2(OC1)O[C@H]1C[C@H]3[C@@H]4CC=C5C[C@@H](O[C@@H]6O[C@H](CO)[C@@H](O[C@@H]7O[C@@H](CO)[C@H](O)[C@H]7O)[C@H](O)[C@H]6O[C@@H]6O[C@@H](C)[C@H](O)[C@@H](O)[C@H]6O)CC[C@]5(C)[C@H]4CC[C@]3(C)[C@H]1[C@@H]2C,Activity,[1],Active
same,Activity,NCI-H460 [2],Active
same,Activity,NCI-H446 [3],Active
same,fold change (FC),NCI-H446 [4],2
same,Activity,NCI-H446 [5],Active
same,Activity,NCI-H1299 [6],Active
same,Activity,NCI-H1299 [7],inactive
same,Activity,NCI-H446 [8],inactive
same,Activity,[9],Active
same,fold change (FC),NCI-H460 [10],2
same,CI,NCI-H460 [11],<1
same,Activity,NCI-H446 [12],Tde
same,Activity,[13],Active
same,Activity,NCI-H520 [14],Active
same,Activity,NCI-H460 [15],Tde
same,Activity,NCI-H446 [16],Active
same,Activity,NCI-H1299 [17],Active
same,Activity,NCI-H520 [18],Active
same,Activity,NCI-H1299 [19],Active
same,Activity,NCI-H446 [20],inactive
same,Activity,NCI-H1299 [21],Active
same,Activity,NCI-H1299 [22],Active
same,Activity,NCI-H446 [23],Active
same,Activity,NCI-H1299 [24],Active
same,Activity,NCI-H446 [25],Active
same,Activity,NCI-H446 [26],Active
same,Activity,Homo sapiens [27],Active
same,Activity,NCI-H1299 [28],inactive
same,Activity,Homo sapiens [29],Active
same,Activity,NCI-H446 [30],Active
same,Activity,[31],inactive
same,Activity,NCI-H460 [32],Active
same,Activity,[33],Active
same,Activity,[34],Active
same,fold change (FC),NCI-H1299 [35],2
